Measured values: US8030446B2, “Mutant proline-and-arginine rich peptides and methods for using the same” (Trustees of Dartmouth College, priority 2006, dated 2011)
pIC50: −log10 of the molar value. Marks after values point to notes of the source that are not given here. Ends that are not written are not given here.

Biological target: T1, Mammalian (Human) 20s Proteasome (Homo sapiens, UniProt P25788)
T1 construct: purchased Boston Biochem (Cambridge, Mass.)
Test: Chymotrypsin-like (ChT-L) peptidase activity of 20S proteasome, N-succinyl-LLVY-AMC substrate
Assay type: biochemical
Settings: chymotrypsin-like activity, 15-minute pre-incubation, 1 hour at 37° C., pH 7.5, 0.03% SDS; read-out: I50
Description: Determination of Enzymatic Activity. Mammalian (Human) 20s Proteasome was purchased from Boston Biochem (Cambridge, Mass.); substrate, N-succinyl-LLVY-AMC was purchased from SIGMA (St. Louis, Mo.); and negative control, Lactacystin, was purchased from SIGMA. […] Activity was determined by measuring the amount of a fluorescence observed upon release of the MCA group after a 1 hour incubation at 37° C. in 50 mM sodium phosphate buffer at pH 7.5 containing 0.03% SDS. Inhibition by PR-peptide was measured after a 15-minute pre-incubation at 37° C. of each peptide with 20S proteasome, followed by the addition of the substrate and the one hour incubation.
For ARRPRPPELPR [Peptide A1E8], the pIC50 was 4.31.
Work on KRRPRPPELPR [Peptide K1E8] yielded a pIC50 of 5.20.
With KKKPRPPYLPR [KKK] the pIC50 was 5.57.
For RRKPRPPYLPR [Peptide K3], the pIC50 was 6.09.
With RRAPRPPYLPR [Peptide A3] the pIC50 was 5.50.

Test system: genes regulating the NF-κB pathway in human umbilical vein endothelial cells (HUVEC)
Test: NF-κB pathway-specific gene expression microarray in HUVEC treated with PR peptides
Assay type: cell-based
Settings: FIG. 1, averaged % inhibition over 13 down-regulated genes, relative to PR11
Description: Cell Culture. Human umbilical vein endothelial cells (HUVEC, Cambrex Bio Science Walkersville, Inc., East Rutherford, N.J.) were cultured in endothelial cell basal medium-2 supplemented with EGM-2 SINGLEQUOTS (Cambrex Bio Science Walkersville, Inc.) and FBS. Confluent HUVEC, passage 3-5, were starved overnight in medium supplemented with 0.5% FBS, 0.25% BSA and incubated with PR peptides (1 μM) for 8 hours in starvation medium.
Total RNA Extraction and Gene Profiling by Microarray. Total RNA extraction was performed using the RNEASY mini kit protocol (QIAGEN, Valencia, Calif.). The quality and quantity of total RNA was determined using RNA 6000 Nano chips (Agilent Technology, Santa Clara, Calif.).
Gene profiling was performed using pathway-specific gene expression array for NF-κB signaling transduction (HS-016.2, SuperArray Bioscience Corp.). A total of 96 cDNA fragments from genes related to NF-κB mediated signal transduction, including: NF-κB/IκB family, NF-κB responsive genes (adhesion molecules, cytokines), extracellular ligands, transmembrane receptors, adaptor proteins, signal transduction kinases, and transcription factors were printed in tetraspot format on 3.8×4.8 cm nylon array membrane. Total RNA (0.5 μg) was reverse-transcribed into cDNA labeled with biotin-dUTP according to the manufacture's protocol. After overnight hybridization at 60° C., array membranes were treated with alkaline phosphate-conjugated streptavidin followed by chemiluminescent alkaline phosphate substrate CDP-star (Applied Biosystems, Foster City, Calif.) and exposed to X-ray film. The data were extracted from raw images using […] software (SuperArray, Bioscience Corp.). After background subtraction, the level of gene expression was determined as signal intensity units relative to total array intensity signal. Statistical significant altered genes (PR peptides vs. control) at P values <0.05 were analyzed by Student's t-test, 2-tailed distribution. The data were expressed as fold change PR peptides relative to controls (untreated cells kept in similar conditions).
In the case of ARRPRPPELPR [Peptide A1E8], the “overall inhibitory effect on NF-κB pathway-related gene expression (in words)” value (from here on “overall inhibitory effect”) was “reduced activity compared with PR11 or Trp12”.
In the case of KRRPRPPELPR [Peptide K1E8], the “overall inhibitory effect” value was “higher than that of Glu8 or Ala1Glu8”.
For KKKPRPPYLPR [KKK], the “overall inhibitory effect” value was “lowest inhibitory effect in this series”.
For RRKPRPPYLPR [Peptide K3], the “overall inhibitory effect” value was “not significantly different than PR11”.
For RRAPRPPYLPR [Peptide A3], the “overall inhibitory effect” value was “more active than A1-PR11 and A2-PR11”.

Same assay, conditions: HUVEC, PR peptides 1 μM, 8 hours, relative to untreated controls
In the case of ARRPRPPELPR [Peptide A1E8], the AKT1 gene expression was 0.8 fold change, the ATF2 gene expression was −1.5* fold change and the CREB1 gene expression was −2.2* fold change. The ELK3 gene expression was “^−1.9^# fold change”, the JNK1 gene expression was −1.5 fold change and the MEK4 gene expression was −1.2 fold change. The MEKK1 gene expression was −0.8 fold change, the MEKK2 gene expression was −1.2 fold change and the NF-κB1 gene expression was −1.6 fold change. The NF-κB2 gene expression was −3.5* fold change, the “P38 MAPK gene expression” value was −1.6 fold change and the RANK gene expression was 1.3 fold change. For the same sequence, the RIP gene expression was −10.4^# fold change, the TAK1 gene expression was −1.8 fold change and the TBK1 gene expression was −2.0^# fold change. The TRAF6 gene expression was −1.6 fold change.
For KRRPRPPELPR [Peptide K1E8], the AKT1 gene expression was 0.6 fold change, the ATF2 gene expression was −2.6^# fold change and the CREB1 gene expression was −5.0^# fold change. For the same sequence, the ELK3 gene expression was “^−1.9^# fold change”, the JNK1 gene expression was −2.2 fold change and the MEK4 gene expression was −1.9* fold change. The MEKK1 gene expression was −1.4 fold change, the MEKK2 gene expression was −3.0^# fold change and the NF-κB1 gene expression was −1.9 fold change. For the same sequence, the NF-κB2 gene expression was −2.3* fold change, the “P38 MAPK gene expression” value was −2.6^# fold change and the RANK gene expression was 0.7 fold change. For the same sequence, the RIP gene expression was −3.3* fold change, the TAK1 gene expression was −2.4^# fold change and the TBK1 gene expression was −3.6^# fold change. For the same sequence, the TRAF6 gene expression was −5.5* fold change.
In the case of KKKPRPPYLPR [KKK], the AKT1 gene expression was 1.7 fold change, the ATF2 gene expression was −1.3 fold change and the CREB1 gene expression was −1.3 fold change. For the same sequence, the ELK3 gene expression was 1.4^# fold change, the JNK1 gene expression was −2.5 fold change and the MEK4 gene expression was −2.8* fold change. It also gave an MEKK1 gene expression of −2.0 fold change, an MEKK2 gene expression of −1.5 fold change and an NF-κB1 gene expression of −2.4 fold change. For the same sequence, the NF-κB2 gene expression was −1.4 fold change, the “P38 MAPK gene expression” value was −1.3 fold change and the RANK gene expression was 1.2 fold change. The RIP gene expression was −2.6 fold change, the TAK1 gene expression was −2.9* fold change and the TBK1 gene expression was −1.8^# fold change. It also gave a TRAF6 gene expression of −1.3 fold change.
With RRKPRPPYLPR [Peptide K3] the AKT1 gene expression was 1.7 fold change, the ATF2 gene expression was −1.6* fold change and the CREB1 gene expression was −1.6 fold change. For the same sequence, the ELK3 gene expression was 1.4^# fold change, the JNK1 gene expression was −3.2* fold change and the MEK4 gene expression was −3.1* fold change. For the same sequence, the MEKK1 gene expression was −3.2 fold change, the MEKK2 gene expression was −1.9^# fold change and the NF-κB1 gene expression was −2.2 fold change. For the same sequence, the NF-κB2 gene expression was −1.2 fold change, the “P38 MAPK gene expression” value was −1.7* fold change and the RANK gene expression was 1.7* fold change. For the same sequence, the RIP gene expression was −2.4* fold change, the TAK1 gene expression was −3.1^# fold change and the TBK1 gene expression was −1.8* fold change. For the same sequence, the TRAF6 gene expression was −1.7 fold change.
Work on RRAPRPPYLPR [Peptide A3] yielded an AKT1 gene expression of 1.7 fold change, an ATF2 gene expression of −1.3 fold change and a CREB1 gene expression of −1.3 fold change. For the same sequence, the ELK3 gene expression was 1.3* fold change, the JNK1 gene expression was −2.6 fold change and the MEK4 gene expression was −2.7* fold change. For the same sequence, the MEKK1 gene expression was −1.9 fold change, the MEKK2 gene expression was −2.1* fold change and the NF-κB1 gene expression was −2.0 fold change. The NF-κB2 gene expression was −1.4 fold change, the “P38 MAPK gene expression” value was −1.9* fold change and the RANK gene expression was 1.7* fold change. For the same sequence, the RIP gene expression was −3.0* fold change, the TAK1 gene expression was −3.3* fold change and the TBK1 gene expression was −2.1* fold change. For the same sequence, the TRAF6 gene expression was −1.4 fold change.

Same assay, conditions: HUVEC, of the 13 down-regulated genes of Tables 5 and 6
With KKKPRPPYLPR [KKK] the “number of significantly reduced genes” value was 3 genes.
In the case of RRKPRPPYLPR [Peptide K3], the “number of significantly reduced genes” value was 8 genes.
In the case of RRAPRPPYLPR [Peptide A3], the “number of significantly reduced genes” value was 5 genes.

Biological target: T1, Mammalian (Human) 20s Proteasome
Test: not given
Settings: Gaczynska, et al. (2003); cited from earlier work
In the case of RRRPRPPY [PR8], the “20S proteasome inhibiting activity (in words)” value is given as “does not inhibit 20S activity”.
